# Assay results published in paper PMC11062922 (Nature Chemical Biology, 2023).
# Several values for one entry are separate records, joined by “and”; a condition that tells them apart may be missing. Equal values may be shown once. Read-outs that look alike come from different tables or passages of the source.
# Columns and labels:
# ABL2 = target: T1, ABL2 (Homo sapiens, UniProt P42684); assay: Kinobeads two-dose competition binding: ABL2; details: read-out: Lestaurtinib Drugmatrix value, Gene Name ABL2
# T1 construct: endogenous in cells
# T1 sequence (P42684 whole entry): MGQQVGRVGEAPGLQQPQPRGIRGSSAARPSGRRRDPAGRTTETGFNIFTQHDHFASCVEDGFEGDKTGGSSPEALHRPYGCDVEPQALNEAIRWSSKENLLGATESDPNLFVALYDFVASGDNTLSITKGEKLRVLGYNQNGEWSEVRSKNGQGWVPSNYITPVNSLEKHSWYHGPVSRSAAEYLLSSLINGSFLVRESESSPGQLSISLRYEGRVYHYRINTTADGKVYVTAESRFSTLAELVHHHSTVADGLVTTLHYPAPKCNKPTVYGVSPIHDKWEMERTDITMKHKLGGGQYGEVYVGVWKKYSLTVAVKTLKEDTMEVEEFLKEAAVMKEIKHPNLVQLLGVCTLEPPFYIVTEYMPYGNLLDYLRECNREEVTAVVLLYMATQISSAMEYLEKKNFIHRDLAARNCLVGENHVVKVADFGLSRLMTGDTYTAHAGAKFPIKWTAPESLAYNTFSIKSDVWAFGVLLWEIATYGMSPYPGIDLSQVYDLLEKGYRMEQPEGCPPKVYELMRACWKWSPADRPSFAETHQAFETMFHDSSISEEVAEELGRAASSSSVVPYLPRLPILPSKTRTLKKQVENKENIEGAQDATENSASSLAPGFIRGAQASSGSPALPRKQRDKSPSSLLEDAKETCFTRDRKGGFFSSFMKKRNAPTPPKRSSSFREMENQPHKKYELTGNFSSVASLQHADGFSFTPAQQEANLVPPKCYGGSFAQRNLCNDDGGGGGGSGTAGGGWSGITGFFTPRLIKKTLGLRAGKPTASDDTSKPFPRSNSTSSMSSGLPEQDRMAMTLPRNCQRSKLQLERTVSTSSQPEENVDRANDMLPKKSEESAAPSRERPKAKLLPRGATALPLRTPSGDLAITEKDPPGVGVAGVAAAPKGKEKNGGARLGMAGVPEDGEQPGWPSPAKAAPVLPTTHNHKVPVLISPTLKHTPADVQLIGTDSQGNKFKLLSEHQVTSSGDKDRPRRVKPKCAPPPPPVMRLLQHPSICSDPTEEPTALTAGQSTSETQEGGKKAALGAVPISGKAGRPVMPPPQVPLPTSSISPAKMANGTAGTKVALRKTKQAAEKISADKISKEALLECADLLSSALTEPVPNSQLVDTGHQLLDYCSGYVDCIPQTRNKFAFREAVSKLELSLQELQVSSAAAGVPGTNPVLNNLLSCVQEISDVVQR
# ACAD11 = target: T2, ACAD11 (Homo sapiens, UniProt Q709F0); assay: Kinobeads two-dose competition binding: ACAD11; details: read-out: Lestaurtinib Drugmatrix value, Gene Name ACAD11
# T2 construct: endogenous in cells
# T2 sequence (Q709F0 1-780): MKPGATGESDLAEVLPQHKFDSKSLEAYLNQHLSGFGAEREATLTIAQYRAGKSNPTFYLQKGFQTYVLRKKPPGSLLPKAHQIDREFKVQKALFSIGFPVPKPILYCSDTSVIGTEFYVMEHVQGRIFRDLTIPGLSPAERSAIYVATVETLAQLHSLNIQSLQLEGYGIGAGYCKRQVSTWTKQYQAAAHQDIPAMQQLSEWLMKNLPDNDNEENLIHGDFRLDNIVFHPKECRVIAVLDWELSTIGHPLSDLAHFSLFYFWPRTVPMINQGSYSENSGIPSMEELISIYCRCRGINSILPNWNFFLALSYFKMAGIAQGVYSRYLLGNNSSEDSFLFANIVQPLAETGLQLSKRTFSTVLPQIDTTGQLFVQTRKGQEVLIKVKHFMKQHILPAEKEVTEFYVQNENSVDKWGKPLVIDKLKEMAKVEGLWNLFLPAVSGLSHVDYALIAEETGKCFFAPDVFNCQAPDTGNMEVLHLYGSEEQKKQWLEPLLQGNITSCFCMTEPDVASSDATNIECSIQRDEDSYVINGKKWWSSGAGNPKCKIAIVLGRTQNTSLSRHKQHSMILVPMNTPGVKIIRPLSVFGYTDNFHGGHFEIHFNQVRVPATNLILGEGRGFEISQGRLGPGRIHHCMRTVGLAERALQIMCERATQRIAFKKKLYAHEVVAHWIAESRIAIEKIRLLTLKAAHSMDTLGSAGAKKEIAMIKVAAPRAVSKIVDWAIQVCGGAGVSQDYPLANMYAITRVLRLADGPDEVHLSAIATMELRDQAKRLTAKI
# ERCC2 = assay: Kinobeads two-dose competition binding: ERCC2; set-up: species or system human; details: read-out: Lestaurtinib Drugmatrix value, Gene Name ERCC2; target ERCC2; each column = one Lestaurtinib control replicate (batch_R1-R3)
# ERN2 = target: T3, ERN2 (Homo sapiens, UniProt Q76MJ5); assay: Kinobeads two-dose competition binding: ERN2; details: read-out: Lestaurtinib Drugmatrix value, Gene Name ERN2
# T3 construct: endogenous in cells
# T3 sequence (Q76MJ5 35-926): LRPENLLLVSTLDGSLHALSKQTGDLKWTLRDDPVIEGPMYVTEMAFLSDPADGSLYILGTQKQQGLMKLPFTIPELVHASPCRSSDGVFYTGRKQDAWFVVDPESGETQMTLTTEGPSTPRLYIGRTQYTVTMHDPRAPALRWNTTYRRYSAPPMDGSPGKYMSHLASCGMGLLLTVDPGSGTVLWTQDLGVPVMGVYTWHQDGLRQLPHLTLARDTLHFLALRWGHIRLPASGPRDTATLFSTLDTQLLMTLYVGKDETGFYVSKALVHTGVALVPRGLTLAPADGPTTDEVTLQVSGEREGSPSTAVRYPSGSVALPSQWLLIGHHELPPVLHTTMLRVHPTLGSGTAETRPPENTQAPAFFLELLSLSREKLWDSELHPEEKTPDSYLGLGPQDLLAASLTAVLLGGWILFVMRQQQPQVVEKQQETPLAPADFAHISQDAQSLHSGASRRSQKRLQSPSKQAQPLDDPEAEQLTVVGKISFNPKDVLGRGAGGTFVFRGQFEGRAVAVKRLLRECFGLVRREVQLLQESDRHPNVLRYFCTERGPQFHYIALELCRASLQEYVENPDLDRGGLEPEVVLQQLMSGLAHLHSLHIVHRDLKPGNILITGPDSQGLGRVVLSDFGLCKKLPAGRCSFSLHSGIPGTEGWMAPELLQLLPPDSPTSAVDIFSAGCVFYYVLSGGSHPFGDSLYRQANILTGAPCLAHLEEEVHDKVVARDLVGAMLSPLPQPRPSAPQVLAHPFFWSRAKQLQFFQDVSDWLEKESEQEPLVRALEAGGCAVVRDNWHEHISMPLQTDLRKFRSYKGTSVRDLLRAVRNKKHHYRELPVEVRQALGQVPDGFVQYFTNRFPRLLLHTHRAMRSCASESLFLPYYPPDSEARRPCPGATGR
# FYN = target: T4, FYN (Homo sapiens, UniProt P06241); assay: Kinobeads two-dose competition binding: FYN; details: read-out: Lestaurtinib Drugmatrix value, Gene Name FYN; target FYN; each column = one Lestaurtinib control replicate (batch_R1-R3)
# T4 construct: endogenous in cells
# T4 sequence (P06241 whole entry): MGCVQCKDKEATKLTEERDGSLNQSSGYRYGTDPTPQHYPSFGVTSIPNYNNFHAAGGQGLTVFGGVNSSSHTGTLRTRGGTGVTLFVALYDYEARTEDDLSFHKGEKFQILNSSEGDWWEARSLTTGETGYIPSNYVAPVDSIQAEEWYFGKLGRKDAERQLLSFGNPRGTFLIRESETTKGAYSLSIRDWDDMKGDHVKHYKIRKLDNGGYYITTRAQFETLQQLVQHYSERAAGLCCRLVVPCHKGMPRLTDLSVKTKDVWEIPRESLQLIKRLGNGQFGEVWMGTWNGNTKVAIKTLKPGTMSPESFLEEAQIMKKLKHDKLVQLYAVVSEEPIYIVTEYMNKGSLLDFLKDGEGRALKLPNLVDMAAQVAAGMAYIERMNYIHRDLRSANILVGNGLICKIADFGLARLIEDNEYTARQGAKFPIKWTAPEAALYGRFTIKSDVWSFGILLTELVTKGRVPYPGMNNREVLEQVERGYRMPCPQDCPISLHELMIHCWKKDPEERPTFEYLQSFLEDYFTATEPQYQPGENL
# CSNK2A1 = target: T5, CSNK2A1 (Homo sapiens, UniProt P68400); assay: NanoBRET in-cell target engagement in HEK293T cells: CSNK2A1; format: cell-based
# T5 construct: full-length PKN3, CSNK2A1 or CSNK2A2 ORF; host or cells: HEK293T
# T5 sequence (P68400 whole entry): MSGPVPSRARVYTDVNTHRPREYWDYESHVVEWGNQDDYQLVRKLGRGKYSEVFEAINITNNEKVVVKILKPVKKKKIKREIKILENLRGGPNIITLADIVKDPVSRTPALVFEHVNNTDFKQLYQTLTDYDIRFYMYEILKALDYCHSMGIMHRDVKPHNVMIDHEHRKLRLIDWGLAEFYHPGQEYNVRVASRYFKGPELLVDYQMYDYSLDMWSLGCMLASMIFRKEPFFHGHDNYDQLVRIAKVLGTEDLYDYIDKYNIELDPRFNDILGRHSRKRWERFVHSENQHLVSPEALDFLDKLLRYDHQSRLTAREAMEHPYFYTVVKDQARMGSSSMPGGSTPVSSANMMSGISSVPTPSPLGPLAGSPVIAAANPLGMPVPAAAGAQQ
# Method: The NanoBRET assay was performed as described previously[28],[58]. In brief, full-length PKN3, CSNK2A1 or CSNK2A2 ORF (PKN3 vector was a kind gift of Promega, Vectors for […]: NV2981, NV1191) cloned in frame with a C-terminal NanoLuc-fusion, respectively, were transfected into HEK293T cells using FuGENE HD (Promega, E2312) and proteins were allowed to express for 20 h. Serially diluted inhibitor and NanoBRET Kinase Tracer K5 (Promega, N2530) at 500 nM (PKN3) or NanoBRET Kinase Tracer K10 (Promega, N2840) at 500 nM ([…]) were pipetted into 384-well plates using an Echo acoustic dispenser (Labcyte). The PKN3, CSNK2A1 or CSNK2A2 transfected cells were added at a density of 2 × 10^5 cells per ml after trypsinization and resuspending in Opti-MEM without phenol red (Life Technologies). The system was allowed to equilibrate for 2 h at 37 °C and 5% CO2 before BRET measurements. BRET signaling was measured by adding NanoBRET NanoGlo Substrate and Extracellular NanoLuc Inhibitor (Promega) according to the manufacturer’s protocol. Filtered luminescence was measured on a PHERAstar plate reader (BMG Labtech) equipped with a luminescence filter pair (450 nm BP filter (donor) and 610 LP filter (acceptor)). Competitive displacement data were then graphed using GraphPad Prism software (v.5.01) using a three-parameter curve fit with the following equation Y=bottom+(top−bottom)/1+10^logIC50−X×hillslope
# Experiments were performed with at least two biological and two technical replicates.
# 468 kinases = tested on: 468 kinases; set-up: KINOMEScan: unit not given here; details: cited from earlier work; for KINOMEScan: published data
smiles,measurement,setting,value
C[C@]12O[C@H](C[C@]1(O)CO)n1c3ccccc3c3c4c(c5c6ccccc6n2c5c31)CNC4=O [Lestaurtinib],potency estimated from few doses,ABL2,340 nM
same,potency estimated from few doses,ACAD11,890 nM
same,potency estimated from few doses,ERCC2,161 nM and 261 nM
same,potency estimated from few doses,ERN2,346 nM
same,potency estimated from few doses,FYN,817 nM
COc1cc(Nc2ncc3c(C)nc(-c4cc5ccccc5[nH]4)n3n2)cc(OC)c1OC [GW869516X],IC50,"CSNK2A1; CSNK2A1, replicate 1, read-out: NanoBRET Rep1",471 nM
same,IC50,"CSNK2A1; CSNK2A1, replicate 2, read-out: NanoBRET Rep2",421 nM
same,IC50,"CSNK2A1; HEK293T cells, in-cell target engagement, read-out: IC50 CSNK2A1 NanoBRET",446 nM
same,number of kinases with more than 70% inhibition of binding,"468 kinases; broad KINOMEscan assay covering 468 kinases, ref a previous study",33
same,KINOMEScan,468 kinases; kinase AMPK-alpha1,89
same,KINOMEScan,468 kinases; kinase AMPK-alpha2,61
same,KINOMEScan,468 kinases; kinase BLK,60
same,KINOMEScan,468 kinases; kinase CIT,100
same,KINOMEScan,468 kinases; kinase CLK1,88
same,KINOMEScan,468 kinases; kinase CLK2,75
same,KINOMEScan,468 kinases; kinase CSNK2A1,96.4
same,KINOMEScan,468 kinases; kinase CSNK2A2,99.7
same,KINOMEScan,468 kinases; kinase DDR1,52
same,KINOMEScan,468 kinases; kinase DDR2,52
same,KINOMEScan,468 kinases; kinase DYRK1A,85
same,KINOMEScan,468 kinases; kinase DYRK1B,81
same,KINOMEScan,468 kinases; kinase EPHB1,58
same,KINOMEScan,468 kinases; kinase FLT3-autoinhibited,75
same,KINOMEScan,468 kinases; kinase FLT3,96.3
same,KINOMEScan,"468 kinases; kinase GCN2(Kin.Dom.2,S808G)",88
same,KINOMEScan,468 kinases; kinase HIPK1,79
same,KINOMEScan,468 kinases; kinase INSRR,53
same,KINOMEScan,468 kinases; kinase JAK1(JH2domain-pseudokinase),98.5
same,KINOMEScan,468 kinases; kinase JAK2(JH1domain-catalytic),54
same,KINOMEScan,468 kinases; kinase KIT,72
same,KINOMEScan,468 kinases; kinase LCK,71
same,KINOMEScan,468 kinases; kinase MAP3K4,52
same,KINOMEScan,468 kinases; kinase MEK5,78
same,KINOMEScan,468 kinases; kinase MERTK,56
same,KINOMEScan,468 kinases; kinase MLK1,93.8
same,KINOMEScan,468 kinases; kinase MLK2,89
same,KINOMEScan,468 kinases; kinase MLK3,87
same,KINOMEScan,468 kinases; kinase NEK2,70
same,KINOMEScan,468 kinases; kinase NEK3,89
same,KINOMEScan,468 kinases; kinase NEK5,99
same,KINOMEScan,468 kinases; kinase NEK6,99.6
same,KINOMEScan,468 kinases; kinase NEK7,99.7
same,KINOMEScan,468 kinases; kinase NEK9,90
same,KINOMEScan,468 kinases; kinase NEK11,86
same,KINOMEScan,468 kinases; kinase PAK3,69
same,KINOMEScan,468 kinases; kinase PIP5K1C,89
same,KINOMEScan,468 kinases; kinase PIP5K2C,90.3
same,KINOMEScan,468 kinases; kinase PKAC-beta,51
same,KINOMEScan,468 kinases; kinase RSK1(Kin.Dom.1-N-terminal),91.7
same,KINOMEScan,468 kinases; kinase RSK3(Kin.Dom.1-N-terminal),66
same,KINOMEScan,468 kinases; kinase SLK,63
same,KINOMEScan,468 kinases; kinase SRC,90.1
same,KINOMEScan,468 kinases; kinase STK16,86
same,KINOMEScan,468 kinases; kinase SYK,53
same,KINOMEScan,468 kinases; kinase TBK1,58
same,KINOMEScan,468 kinases; kinase TYK2(JH2domain-pseudokinase),82
same,KINOMEScan,468 kinases; kinase ULK2,51
same,KINOMEScan,468 kinases; kinase WEE2,85
